Results published in PMC5359555, “Mechanistic and structural basis of bioengineered bovine Cathelicidin-5 with optimized therapeutic activity” (Scientific Reports, 2017).
“And” between values parts separate entries of the source, which are not always exact repeats. Equal values may be shown once. Where a SMILES comes first, the peptide text is derived from it.

Tests used:
B-cell lymphoma (Ramos) = format: cell-based; settings: at a concentration higher than 30 μM
Experimental: The T-cell lymphoma (Jurkat) and B-cell lymphoma (Ramos) were cultured using RPMI-1640 medium supplemented with 10% fetal calf serum (FCS), 100 U ml^−1 penicillin and 100 μg ml^−1 streptomycin. An initial cell densities of 5 × 10^3 cells/well was uniformly maintained in a 96 well plate. The B16-F1 melanoma cells were grown in DMEM medium containing 10% FCS, 100 U ml^−1 penicillin and 100 μg ml^−1 streptomycin and 55 μM 2-mercaptoethanol. The cells were trypsinized and plated in a 96-well plate at a density of 5 × 10^3 cells/well. The cells were grown overnight at 37 °C using a 5% CO2 incubator. The cells were treated with different peptide concentration followed by cell proliferation assay. […] Fresh culture medium and cells in medium without peptide were considered as negative and positive controls for viability assay and was monitored at 24, 48 and 72 h. The Cayman MTT cell proliferation assay protocol was followed, and the absorbance were recorded at 570 nm using a microplate reader (PowerWaveHT, BioTek Instruments, USA).

[1] = test system: Plasmodium falciparum strain 3D7; experiment: microbe, parasite or virus in culture; format: cell-based; settings: for antimalarial activity (in words): at 10 and 30 μM
Experimental: Plasmodium falciparum strain 3D7 was cultured in RPMI-1640 supplemented with 25 mg/l L-Glutamine; HEPES, NaHCO3; 50 mg/l Hypoxanthin; Gentamicien; 10% human serum; and RBCs at 3% hematocrit in an atmosphere of 5% CO2, 5% O2, and 90% N2 at 37°C as previously described. The Plasmodium lactate dehydrogenase (pLDH) assay was performed to measure the parasitic growth inhibition as described elsewhere[49] with BMAP-28 and its analogues treatment. In brief, malstat reagent was added to a 96-well plate (100 μL in each well). A Plasmodium infected RBC mixture of 20 μL in each well was mixed thoroughly using a plate shaker. And then 10 μL of each 1 mg/ml diaphorase and Nitroblue tetrozolium (NBT) were added to each well. The solution in the 96-well plate was mixed properly until a brown color appears and the absorbance was measured at 650 nm under a plate reader (PowerWaveHT, BioTek Instruments, USA). The hemolytic assay was carried out as described earlier. Briefly, RBCs prepared from fresh blood (Hematocrit ~5%) were incubated for 1 h at 37 °C after addition of test peptides. Relative hemoglobin concentration in supernatants after centrifugation at 2000× g for 5 min was monitored by measuring the absorbance at 540 nm by the plate reader (PowerWaveHT, BioTek Instruments, USA). As positive control, 100% hemolysis was taken from samples in which 2% Triton X-100 was added.

[2] = test system: Gram-positive and Gram-negative strains (E. coli BL21, Bacillus subtilis, Staphylococcus epidermis); format: cell-based; settings: even at one order higher concentration than MIC ~2 μM
Experimental: The Escherichia coli strains BL21 and DH5α were obtained from Novagen and Takara Clontech, respectively. The Bacillus subtilis (3009) and Staphylococcus epidermis (12993) were purchased from NITE Biological Resource Center (NBRC, Japan). The bacterial growth procedures followed in this study were described elsewhere. The mid-log phase microbial growth (~4 × 10^7 cells/mL, 5 μL) was used for growth assay in a 96-well plate (5 replicates) at a variable peptide concentration incubated at 37 °C for 12–48 h.

B16-F1 melanoma cells = experiment: MTT cell-viability assay, B16-F1 melanoma; format: cell-based, mouse
Experimental: The T-cell lymphoma (Jurkat) and B-cell lymphoma (Ramos) were cultured using RPMI-1640 medium supplemented with 10% fetal calf serum (FCS), 100 U ml^−1 penicillin and 100 μg ml^−1 streptomycin. An initial cell densities of 5 × 10^3 cells/well was uniformly maintained in a 96 well plate. The B16-F1 melanoma cells were grown in DMEM medium containing 10% FCS, 100 U ml^−1 penicillin and 100 μg ml^−1 streptomycin and 55 μM 2-mercaptoethanol. The cells were trypsinized and plated in a 96-well plate at a density of 5 × 10^3 cells/well. The cells were grown overnight at 37 °C using a 5% CO2 incubator. The cells were treated with different peptide concentration followed by cell proliferation assay. The MTT assay kit (Cayman chemicals, USA) was used to measure the cell viability at a peptide concentration varying from 2 to 15 μM (in triplicate). Fresh culture medium and cells in medium without peptide were considered as negative and positive controls for viability assay and was monitored at 24, 48 and 72 h. The Cayman MTT cell proliferation assay protocol was followed, and the absorbance were recorded at 570 nm using a microplate reader (PowerWaveHT, BioTek Instruments, USA).

[3] = not given; remark: listed apart in the source
[4] = not given; remark: listed apart in the source

Row | SMILES | anticancer activity (in words) (B-cell lymphoma (Ramos)) | antimalarial activity (in words) [1] | antimicrobial activity (in words) [2] | other results
1 | CC[C@H](C)[C@H](NC(=O)[C@H](CCCCN)NC(=O)[C@H](CCCNC(=N)N)NC(=O)CN)C(=O)N[C@@H](CC(C)C)C(=O)N[C@@H](CCCNC(=N)N)C(=O)N[C@@H](C)C(=O)N[C@@H](Cc1c[nH]c2ccccc12)C(=O)N[C@@H](CCCCN)C(=O)N[C@@H](CCCCN)C(=O)N[C@@H](Cc1ccc(O)cc1)C(=O)NCC(N)=O [Syn3] (H-GRKILRAWKKYG-NH2; N-terminus assumed) | loss-of activity | very low potentiality | loss of activity | 
2 | CC[C@H](C)[C@H](NC(=O)[C@H](CCCCN)NC(=O)[C@H](CCCNC(=N)N)NC(=O)CNC(=O)[C@H](CC(C)C)NC(=O)[C@H](CO)NC(=O)[C@H](CCCNC(=N)N)NC(=O)[C@H](CC(C)C)NC(=O)CNC(=O)CN)C(=O)N[C@@H](CC(C)C)C(=O)N[C@@H](CCCNC(=N)N)C(=O)N[C@@H](C)C(=O)N[C@@H](Cc1c[nH]c2ccccc12)C(=O)N[C@@H](CCCCN)C(=O)N[C@@H](CCCCN)C(=O)N[C@@H](Cc1ccc(O)cc1)C(=O)NCC(N)=O [BMAP-28_1–18] (H-GGLRSLGRKILRAWKKYG-NH2; N-terminus assumed) |  |  |  | concentration found to be active (B16-F1 melanoma cells): ~ 30 μM; anticancer activity (in words) (B16-F1 melanoma cells; 10 μM): fairly low anticancer activity
3 | CC(C)C[C@H](NC(=O)CNC(=O)CN)C(=O)N[C@@H](CCCNC(=N)N)C(=O)N[C@@H](CO)C(=O)N[C@@H](CC(C)C)C(=O)NCC(=O)N[C@@H](CCCNC(=N)N)C(=O)N[C@@H](CCCCN)C(=O)N[C@@H](C)C(=O)N[C@@H](C)C(=O)N[C@@H](CCCNC(=N)N)C(=O)N[C@@H](C)C(=O)N[C@@H](Cc1c[nH]c2ccccc12)C(=O)N[C@@H](CCCCN)C(=O)N[C@@H](CCCCN)C(=O)N[C@@H](Cc1ccc(O)cc1)C(=O)NCC(N)=O [Syn2] (H-GGLRSLGRKAARAWKKYG-NH2; N-terminus assumed) | loss-of activity | very low potentiality | loss of activity | 
4 | CC[C@H](C)[C@H](NC(=O)[C@H](CCCNC(=N)N)NC(=O)[C@@H](NC(=O)[C@@H](NC(=O)[C@@H]1CCCN1C(=O)[C@@H](NC(=O)[C@@H](NC(=O)[C@@H](NC(=O)[C@@H]1CCCN1C(=O)CNC(=O)[C@H](Cc1ccc(O)cc1)NC(=O)[C@H](CCCCN)NC(=O)[C@H](CCCCN)NC(=O)[C@H](Cc1c[nH]c2ccccc12)NC(=O)[C@H](C)NC(=O)[C@H](CCCNC(=N)N)NC(=O)[C@H](CC(C)C)NC(=O)[C@@H](NC(=O)[C@H](CCCCN)NC(=O)[C@H](CCCNC(=N)N)NC(=O)CNC(=O)[C@H](CC(C)C)NC(=O)[C@H](CO)NC(=O)[C@H](CCCNC(=N)N)NC(=O)[C@H](CC(C)C)NC(=O)CNC(=O)CN)[C@@H](C)CC)[C@@H](C)CC)[C@@H](C)CC)C(C)C)[C@@H](C)CC)[C@@H](C)CC)C(=O)NCC(=O)O (H-GGLRSLGRKILRAWKKYGPIIVPIIRIG-OH) |  |  |  | β-sheet content: 7.1% and 25.3% and 7.5%; β content [3]: 14.3% and 21.5%; α content [4]: 11.1% and 11.9%
5 | C[C@@H]1CC[C@H]2[C@@H](C)C(=O)O[C@@H]3O[C@@]4(C)CC[C@@H]1[C@]32OO4 [Art, artemisinin, reference compound] |  |  |  | inhibition at 5 µM ([1]; Plasmodium falciparum, 3D7, 5 μM, positive control, pLDH assay, read-out: growth inhibition (%) of P. falciparum): 100%
